The values below come from patent publication US11407763B2, “Tryptophan hydroxylase inhibitor and pharmaceutical composition including same” (GWANGJU INSTITUTE OF SCIENCE AND TECHNOLOGY, priority 2017, dated 2022).

Counter-ions that a name gives are not always drawn.

For the first experiment, the target named is TPH1 (tryptophan hydroxylase 1) (Homo sapiens (Human), UniProt P17752). As to the kind of experiment: TPH1 inhibitor screening assay kit (BPS Bioscience), fluorescence. In kind it is biochemical. The settings on record: TPH1. The procedure: In order to confirm the inhibitory effect of the compound represented by formula 1 according to the present invention on the tryptophan hydroxylase activity, it was measured using a TPH1 (tryptophan hydroxylase 1) inhibitor screening assay kit (BPS Bioscience, Catalog #72053). The TPH1 inhibitor screening assay kit was used according to the manufacturer's manual.
Chain of TPH1 (tryptophan hydroxylase 1) (P17752 whole entry): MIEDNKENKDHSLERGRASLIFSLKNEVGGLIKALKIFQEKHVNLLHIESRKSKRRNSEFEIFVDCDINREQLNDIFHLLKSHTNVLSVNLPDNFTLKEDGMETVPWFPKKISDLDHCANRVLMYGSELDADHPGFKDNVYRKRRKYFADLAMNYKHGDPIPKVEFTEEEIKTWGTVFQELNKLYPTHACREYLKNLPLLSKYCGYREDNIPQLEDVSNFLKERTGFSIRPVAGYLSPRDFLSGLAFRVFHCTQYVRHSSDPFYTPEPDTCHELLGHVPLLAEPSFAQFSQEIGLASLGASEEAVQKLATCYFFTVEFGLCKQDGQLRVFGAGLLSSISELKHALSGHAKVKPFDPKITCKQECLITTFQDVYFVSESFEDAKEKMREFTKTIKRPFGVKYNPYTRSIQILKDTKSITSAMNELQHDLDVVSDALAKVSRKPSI
Particularly, the synthesized compound was dissolved in DMSO, which was added to a 96-well microplate (10 ? /well), to which TPH1 enzyme was added (40 ? /well). Then, TPH1 reaction solution was added to the microplate (50 ? /well) and the microplate was shaded with aluminum foil. The microplate was transferred to 4° C. environment, shaken carefully and incubated for 4 hours. After adding a quench solution to the microplate (10 ? /well), the TPH1 activity was measured by reading the degree of fluorescence color development with a Flexstation3 microplate reader. At this time, the excitation spectrum was 300 nm and the emission spectrum was 360 nm.
Molecule `Cc1ccn(-c2cc(Cl)ccc2[C@@H](Oc2ncnc3c(-c4ccc(C[C@H](N)C(=O)O)cc4)csc23)C(F)(F)F)n1` [Example 8, (S)-2-amino-3-(4-(4-((R)-1-(4-chloro-2-(3-methyl-1H-pyrazole-1-yl)phenyl)-2,2,2-trifluoroethoxy)thieno[3,2-d]pyrimidine-7-yl)phenyl)propionic acid hydrochloride] came in with an IC50 of 36 nM. In other words, the double-digit nanomolar range. For the molecule `Nc1nc(O[C@H](c2ccc(Cl)cc2C2=CCCOC2)C(F)(F)F)cc(C2=CCC(C[C@H](N)C(=O)O)CC2)n1` (stereo partly drawn) [Example 67, (2S)-2-amino-3-(4-(2-amino-6-((R)-1-(4-chloro-2-(5,6-dihydro-2H-pyran-3-yl)phenyl)-2,2,2-trifluoroethoxy)pyrimidine-4-yl)cyclohex-3-ene-1-yl)propionic acid], inhibition was half-maximal at 91 nM (IC50). Compared with the last molecule, the IC50 is about 2.5-fold higher. Regarding `Cc1ccn(-c2cc(Cl)ccc2[C@@H](Oc2cc(C3=CCC(C[C@H](N)C(=O)O)CC3)nc(N)n2)C(F)(F)F)n1` (stereo partly drawn) [Example 45, (2S)-2-amino-3-(4-(2-amino-6-((R)-1-(4-chloro-2-(3-methyl-1H-pyrazole-1-yl)phenyl)-2,2,2-trifluoroethoxy)pyrimidine-4-yl)cyclohex-3-ene-1-yl)propionic acid], the 50% inhibitory concentration (IC50) worked out at 98 nM.

The same experiment, now with this note: TPH1 enzyme, 4 hours at 4° C., ex 300 nm / em 360 nm.
`COc1cccc(-c2ccc(Cn3ccc4c(-c5ccc(C[C@H](N)C(=O)O)cc5)ncnc43)cc2)c1` [Example 23, (S)-2-amino-3-(4-(7-((3′-methoxy-[1,1′-biphenyl]-4-yl)methyl)-7H-pyrrolo[2,3-d]pyrimidine-4-yl)phenyl)propionic acid hydrochloride] yielded a 50% inhibitory concentration (IC50) of 578 nM. `Cc1ccn(-c2cc(Cl)ccc2[C@@H](Oc2ncnc3c(C4=CCC(C[C@H](N)C(=O)O)CC4)csc23)C(F)(F)F)n1` (stereo partly drawn) [Example 30, (2S)-2-amino-3-(4-(4-((R)-1-(4-chloro-2-(3-methyl-1H-pyrazole-1-yl)phenyl)-2,2,2-trifluoroethoxy)thieno[3,2-d]pyrimidine-7-yl)cyclohex-3-ene-1-yl)propionic acid hydrochloride] registered an IC50 of 1510 nM.

`Cc1ccn(-c2cc(Cl)ccc2[C@@H](Oc2cc(C3=CCC4(CC3)CNC(C(=O)O)C4)nc(N)n2)C(F)(F)F)n1` (stereo partly drawn) [Example 80, 8-(2-amino-6-((R)-1-(4-chloro-2-(3-methyl-1H-pyrazole-1-yl)phenyl)-2,2,2-trifluoroethoxy)pyrimidine-4-yl)-2-azaspiro[4.5]dec-7-ene-3-carboxylic acid] had a half-inhibitory concentration (IC50) of 194 nM.

Molecule `N[C@@H](Cc1ccc(-c2csc3c(O[C@H](c4ccc(Cl)cc4C4=CCCOC4)C(F)(F)F)ncnc23)cc1)C(=O)O` [Example 70, (S)-2-amino-3-(4-(4-((R)-1-(4-chloro-2-(5,6-dihydro-2H-pyran-3-yl)phenyl)-2,2,2-trifluoroethoxy)thieno[3,2-d]pyrimidine-7-yl)phenyl)propionic acid] registered an IC50 of 371 nM. This IC50 is about 1.9-fold higher than that of the molecule before.

`N[C@@H](Cc1ccc(-c2csc3c(OC(c4ccc(Cl)cc4-c4ccc(F)cc4)C(F)(F)F)ncnc23)cc1)C(=O)O` (stereo partly drawn) [Example 46, (2S)-2-amino-3-(4-(4-(1-(5-chloro-4′-fluoro-[1,1′-biphenyl]-2-yl)-2,2,2-trifluoroethoxy)thieno[3,2-d]pyrimidine-7-yl)phenyl)propionic acid hydrochloride] returned a concentration for half-maximal inhibition (IC50) of 8720 nM.

`Nc1nc(O[C@H](c2ccc(Cl)cc2C2=CCCOC2)C(F)(F)F)cc(C2=CCC3(CC2)CNC(C(=O)O)C3)n1` (stereo partly drawn) [Example 94, 8-(2-amino-6-((R)-1-(4-chloro-2-(5,6-dihydro-2H-pyran-3-yl)phenyl)-2,2,2-trifluoroethoxy)pyrimidine-4-yl)-2-azaspiro[4.5]dec-7-ene-3-carboxylic acid hydrochloride] had an IC50 of 209 nM. As for `Cc1ccn(-c2cc(Cl)ccc2[C@@H](Oc2cc(C3=CCC(C[C@H](N)C(=O)O)CC3)nc(C)n2)C(F)(F)F)n1` (stereo partly drawn) [Example 32, (2S)-2-amino-3-(4-(6-((R)-1-(4-chloro-2-(3-methyl-1H-pyrazole-1-yl)phenyl)-2,2,2-trifluoroethoxy)-2-methylpyrimidine-4-yl)cyclohex-3-ene-1-yl)propionic acid hydrochloride], the concentration for half-maximal inhibition (IC50) came to 1820 nM. Molecule `COc1cccc(-c2ccc(Cn3ccc4c(-c5ccc(C[C@H](N)C(=O)O)cc5)nc(N)nc43)cc2)c1` [Example 12, (S)-2-amino-3-(4-(2-amino-7-((3′-methoxy-[1,1′-biphenyl]-4-yl)methyl)-7H-pyrrolo[2,3-d]pyrimidine-4-yl)phenyl)propionic acid hydrochloride] registered a half-inhibitory concentration (IC50) of 297 nM. In turn, `Cc1ccn(-c2cc(Cl)ccc2[C@@H](Oc2nc(N)nc3c(-c4ccc(C[C@H](N)C(=O)O)cc4)csc23)C(F)(F)F)n1` [Example 91, (S)-2-amino-3-(4-(2-amino-4-((R)-1-(4-chloro-2-(3-methyl-1H-pyrazole-1-yl)phenyl)-2,2,2-trifluoroethoxy)thieno[3,2-d]pyrimidine-7-yl)phenyl)propionic acid hydrochloride] came in with an IC50 of 208 nM.

The molecule `Cc1ccn(-c2cc(Cl)ccc2[C@@H](Oc2ncnc3c(-c4ccc(C[C@H](N)C(=O)O)cc4)csc23)C(F)(F)F)n1` [Example 8, (S)-2-amino-3-(4-(4-((R)-1-(4-chloro-2-(3-methyl-1H-pyrazole-1-yl)phenyl)-2,2,2-trifluoroethoxy)thieno[3,2-d]pyrimidine-7-yl)phenyl)propionic acid hydrochloride] came in with an IC50 of 36 nM. On to `Cc1ccn(-c2cc(Cl)ccc2[C@@H](Oc2ncnc3c(C4=CCC5(CC4)CNC(C(=O)O)C5)csc23)C(F)(F)F)n1` (stereo partly drawn) [Example 84, 8-(4-((R)-1-(4-chloro-2-(3-methyl-1H-pyrazole-1-yl)phenyl)-2,2,2-trifluoroethoxy)thieno[3,2-d]pyrimidine-7-yl)-2-azaspiro[4.5]dec-7-ene-3-carboxylic acid hydrochloride], for which the IC50 came to 307 nM. As to `Nc1nc(O[C@H](c2ccc(Cl)cc2C2=CCOCC2)C(F)(F)F)cc(C2=CCC(C[C@H](N)C(=O)O)CC2)n1` (stereo partly drawn) [Example 85, (2S)-2-amino-3-(4-(2-amino-6-((R)-1-(4-chloro-2-(3,6-dihydro-2H-pyran-4-yl)phenyl)-2,2,2-trifluoroethoxy)pyrimidine-4-yl)cyclohex-3-ene-1-yl)propionic acid], half-maximal inhibition (IC50) required 940 nM. Same read-out and setting: under `COc1cccc(-c2ccc([C@@H](Oc3cc(C4=CCC5(CC4)CNC(C(=O)O)C5)nc(N)n3)C(F)(F)F)cc2)c1` (stereo partly drawn) [Example 89, 8-(2-amino-6-((R)-2,2,2-trifluoro-1-(3′-methoxy-[1,1′-biphenyl]-4-yl)ethoxy)pyrimidine-4-yl)-2-azaspiro[4.5]dec-7-ene-3-carboxylic acid] stands 409 nM. `Nc1nc(O[C@H](c2ccc(Cl)cc2C2=CCOCC2)C(F)(F)F)cc(C2=CCC3(CC2)CNC(C(=O)O)C3)n1` (stereo partly drawn) [Example 83, 8-(2-amino-6-((R)-1-(4-chloro-2-(3,6-dihydro-2H-pyran-4-yl)phenyl)-2,2,2-trifluoroethoxy)pyrimidine-4-yl)-2-azaspiro[4.5]dec-7-ene-3-carboxylic acid hydrochloride]: half-maximal inhibition (IC50) required 1150 nM. This IC50 is about 2.8-fold higher than that of the molecule before. On to `Cc1ccn(-c2cc(Cl)ccc2[C@@H](Oc2cc(C3=CCC(C[C@H](N)C(=O)O)CC3)nc(N)n2)C(F)(F)F)n1` (stereo partly drawn) [Example 45, (2S)-2-amino-3-(4-(2-amino-6-((R)-1-(4-chloro-2-(3-methyl-1H-pyrazole-1-yl)phenyl)-2,2,2-trifluoroethoxy)pyrimidine-4-yl)cyclohex-3-ene-1-yl)propionic acid], for which half-maximal inhibition (IC50) required 98 nM.

With `COc1cccc(-c2ccc([C@@H](Oc3cc(C4=CCC(C[C@H](N)C(=O)O)CC4)nc(N)n3)C(F)(F)F)cc2)c1` (stereo partly drawn) [Example 58, (2S)-2-amino-3-(4-(2-amino-6-((R)-2,2,2-trifluoro-1-(3′-methoxy-[1,1′-biphenyl]-4-yl)ethoxy)pyrimidine-4-yl)cyclohex-3-ene-1-yl)propionic acid], the IC50 turned out to be 204 nM. This IC50 is about 2.1-fold higher than that of the molecule before.

Still in this experiment, the particulars now being: TPH1 enzyme, 4 hours at 4° C., ex 300 nm / em 360 nm; hydrochloride.
`Cc1ccn(-c2cc(Cl)ccc2[C@@H](Oc2cc(C3=CCC4(CC3)CNC(C(=O)O)C4)nc(N)n2)C(F)(F)F)n1` (stereo partly drawn) [Example 79, 8-(2-amino-6-((R)-1-(4-chloro-2-(3-methyl-1H-pyrazole-1-yl)phenyl)-2,2,2-trifluoroethoxy)pyrimidine-4-yl)-2-azaspiro[4.5]dec-7-ene-3-carboxylic acid hydrochloride] displayed a 50% inhibitory concentration (IC50) of 185 nM. Turning to `COc1cccc(-c2ccc([C@@H](Oc3cc(C4=CCC5(CC4)CNC(C(=O)O)C5)nc(N)n3)C(F)(F)F)cc2)c1` (stereo partly drawn) [Example 87, 8-(2-amino-6-((R)-2,2,2-trifluoro-1-(3′-methoxy-[1,1′-biphenyl]-4-yl)ethoxy)pyrimidine-4-yl)-2-azaspiro[4.5]dec-7-ene-3-carboxylic acid hydrochloride], the IC50 was determined as 741 nM. The molecule `COc1cccc(-c2ccc([C@@H](Oc3cc(C4=CCC(C[C@H](N)C(=O)O)CC4)nc(N)n3)C(F)(F)F)cc2)c1` (stereo partly drawn) [Example 34, (2S)-2-amino-3-(4-(2-amino-6-((R)-2,2,2-trifluoro-1-(3′-methoxy-[1,1′-biphenyl]-4-yl)ethoxy)pyrimidine-4-yl)cyclohex-3-ene-1-yl)propionic acid hydrochloride] registered an IC50 of 281 nM.

`Nc1nc(O[C@H](c2ccc(Cl)cc2C2=CCCOC2)C(F)(F)F)cc(C2=CCC(C[C@H](N)C(=O)O)CC2)n1` (stereo partly drawn) [Example 66, (2S)-2-amino-3-(4-(2-amino-6-((R)-1-(4-chloro-2-(5,6-dihydro-2H-pyran-3-yl)phenyl)-2,2,2-trifluoroethoxy)pyrimidine-4-yl)cyclohex-3-ene-1-yl)propionic acid hydrochloride] came in with a 50% inhibitory concentration (IC50) of 125 nM.

The molecule `Cc1ccn(-c2cc(Cl)ccc2[C@@H](Oc2cc(C3=CCC(C[C@H](N)C(=O)O)CC3)nc(N)n2)C(F)(F)F)n1` (stereo partly drawn) [Example 31, (2S)-2-amino-3-(4-(2-amino-6-((R)-1-(4-chloro-2-(3-methyl-1H-pyrazole-1-yl)phenyl)-2,2,2-trifluoroethoxy)pyrimidine-4-yl)cyclohex-3-ene-1-yl)propionic acid hydrochloride] returned an IC50 of 114 nM. `N[C@@H](Cc1ccc(-c2csc3c(O[C@H](c4ccc(Cl)cc4C4=CCCOC4)C(F)(F)F)ncnc23)cc1)C(=O)O` [Example 69, (S)-2-amino-3-(4-(4-((R)-1-(4-chloro-2-(5,6-dihydro-2H-pyran-3-yl)phenyl)-2,2,2-trifluoroethoxy)thieno[3,2-d]pyrimidine-7-yl)phenyl)propionic acid hydrochloride] had a half-maximal inhibitory concentration (IC50) of 263 nM. This IC50 is about 2.3-fold higher than that of the molecule before.

As usually defined, the IC50 is the midpoint of a concentration-inhibition curve. Read a low IC50 as greater potency in that assay.
